Values of other authors as cited in US20240197632A1 (VETERINARY PHARMACY CORPORATION, priority 2022, published 2024).

## CC(C)Cc1ccc(C(C)C(=O)O)cc1 (stereo not shown) [Ibuprofen, 2-(4-Isobutylphenyl)propanoic acid]
  general solubility property in water: 0.0021 % wt/vol
